Data reported in patent US6555535B2, “Tricyclic biphenyl sulfonamide matrix metalloproteinase inhibitors” (Warner-Lambert Company, priority 2001, dated 2003).

Columns and labels:
Assay type in all cases: biochemical
MMP-1FL = biological target: T1, MMP-1FL (Homo sapiens, UniProt P03956); experiment: thiopeptolide hydrolysis assay, full length interstitial collagenase; conditions: thiopeptolide substrate, HEPES pH 7.0, 22° C.
T1 sequence (P03956 100-469): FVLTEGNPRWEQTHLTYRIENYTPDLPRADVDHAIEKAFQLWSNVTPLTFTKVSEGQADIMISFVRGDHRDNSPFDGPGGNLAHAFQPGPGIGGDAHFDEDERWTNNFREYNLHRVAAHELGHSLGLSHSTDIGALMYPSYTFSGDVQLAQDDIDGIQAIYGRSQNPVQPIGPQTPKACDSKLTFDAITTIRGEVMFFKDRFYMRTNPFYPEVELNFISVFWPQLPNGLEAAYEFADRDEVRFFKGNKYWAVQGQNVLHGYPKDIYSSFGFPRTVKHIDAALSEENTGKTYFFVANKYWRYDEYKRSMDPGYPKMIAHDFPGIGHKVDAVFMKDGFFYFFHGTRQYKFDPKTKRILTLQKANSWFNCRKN
Excerpt: (§1) The assays measure the amount by which a test compound reduces the hydrolysis of a thiopeptolide substrate catalyzed by a matrix metalloproteinase enzyme. Such assays are described in detail by Ye et al., in Biochemistry, 1992;31(45):11231-11235, which is incorporated herein by reference.
(§2) Thiopeptolide substrates show virtually no decomposition or hydrolysis at or below neutral pH in the absence of a matrix metalloproteinase enzyme. A typical thiopeptolide substrate commonly utilized for assays is Ac-Pro-Leu-Gly-thioester-Leu-Leu-Gly-OEt. A 100 μL assay mixture will contain 50 mM of N-2-hydroxyethylpiperazine-N′-2-ethanesulfonic acid buffer (“HEPES”) at pH 7.0, 10 mM CaCl2, 100 μM thiopeptolide substrate, and 1 mM 5,5′-dithio-bis-(2-nitro-benzoic acid) (DTNB). The thiopeptolide substrate concentration may be varied from, for example, 10 to 800 μM to obtain Km and Kcat values. The change in absorbance at 405 nm is monitored on a Thermo Max microplate reader (Molecular Devices, Menlo Park, Calif.) at room temperature (22° C.). The calculation of the amount of hydrolysis of the thiopeptolide substrate is based on E412=13600 M^−1 cm^−1 for the DTNB-derived product 3-carboxy-4-nitrothiophenoxide. Assays are carried out with and without matrix metalloproteinase inhibitor compounds, and the amount of hydrolysis is compared for a determination of inhibitory activity of the test compounds.
(§3) Several representative compounds have been evaluated for their ability to inhibit various matrix metalloproteinase enzymes. In Table 1, MMP-1FL refers to full length interstitial collagenase; MMP-2FL refers to full length Gelatinase A; MMP-3CD refers to the catalytic domain of stromelysin-1; MMP-7FL refers to full length matrilysin; MMP-9FL refers to full length Gelatinase B; MMP-13CD refers to the catalytic domain of collagenase 3; and MMP-14CD refers to the catalytic domain of MMP-14. Test compounds were evaluated at various concentrations in order to determine their respective IC50 values, the micromolar concentration of compound required to cause a 50% inhibition of the catalytic activity of the respective enzyme.

MMP-2FL = biological target: T2, MMP-2FL (Homo sapiens, UniProt P08253); experiment: thiopeptolide hydrolysis assay, full length Gelatinase A; conditions: thiopeptolide substrate, HEPES pH 7.0, 22° C.
T2 sequence (P08253 110-660): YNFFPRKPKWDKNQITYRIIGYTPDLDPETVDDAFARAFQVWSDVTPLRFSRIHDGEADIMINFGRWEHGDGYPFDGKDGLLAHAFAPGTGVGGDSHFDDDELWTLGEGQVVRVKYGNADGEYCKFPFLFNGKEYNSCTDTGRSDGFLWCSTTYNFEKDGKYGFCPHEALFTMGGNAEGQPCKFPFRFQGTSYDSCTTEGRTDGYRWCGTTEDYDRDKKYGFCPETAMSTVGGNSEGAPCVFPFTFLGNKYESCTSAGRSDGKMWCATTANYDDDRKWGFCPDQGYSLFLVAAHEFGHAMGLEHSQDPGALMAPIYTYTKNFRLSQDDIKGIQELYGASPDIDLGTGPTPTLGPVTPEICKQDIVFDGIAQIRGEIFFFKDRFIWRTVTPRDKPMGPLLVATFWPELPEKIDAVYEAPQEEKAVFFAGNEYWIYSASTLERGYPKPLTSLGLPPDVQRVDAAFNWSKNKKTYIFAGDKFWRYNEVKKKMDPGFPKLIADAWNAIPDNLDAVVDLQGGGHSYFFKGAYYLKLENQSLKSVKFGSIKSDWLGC
Excerpt: as §1, §2, §3

MMP-3CD = MMP-3CD (Homo sapiens, UniProt P08254); experiment: thiopeptolide hydrolysis assay, catalytic domain of stromelysin-1; conditions: thiopeptolide substrate, MES buffer pH 6.0
Excerpt: as §1, §2, §3
It should be appreciated that the assay buffer used with MMP-3CD was 50 mM of 2-morpholinoethanesulfonic acid monohydrate (“MES”) at pH 6.0, rather than the HEPES buffer at pH 7.0 described above.

MMP-7FL = biological target: T3, MMP-7FL (Homo sapiens, UniProt P09237); experiment: thiopeptolide hydrolysis assay, full length matrilysin; conditions: thiopeptolide substrate, HEPES pH 7.0, 22° C.
T3 sequence (P09237 95-267): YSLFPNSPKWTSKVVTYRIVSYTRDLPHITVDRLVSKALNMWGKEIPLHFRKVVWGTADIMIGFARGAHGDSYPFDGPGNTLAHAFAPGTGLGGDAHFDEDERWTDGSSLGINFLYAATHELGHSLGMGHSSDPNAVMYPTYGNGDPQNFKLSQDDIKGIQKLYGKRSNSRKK
Excerpt: as §1, §2, §3

MMP-9FL = MMP-9FL (Homo sapiens, UniProt P14780); experiment: thiopeptolide hydrolysis assay, full length Gelatinase B; conditions: thiopeptolide substrate, HEPES pH 7.0, 22° C.
Excerpt: as §1, §2, §3

MMP-13CD = MMP-13CD (Homo sapiens, UniProt P45452); experiment: thiopeptolide hydrolysis assay, catalytic domain of collagenase 3; conditions: thiopeptolide substrate, HEPES pH 7.0, 22° C.
Excerpt: as §1, §2, §3

MMP-14CD = MMP-14CD (Homo sapiens, UniProt P50281); experiment: thiopeptolide hydrolysis assay, catalytic domain of MMP-14; conditions: thiopeptolide substrate, HEPES pH 7.0, 22° C.
Excerpt: as §1, §2, §3

Chain of MMP-9FL (P14780 94-707): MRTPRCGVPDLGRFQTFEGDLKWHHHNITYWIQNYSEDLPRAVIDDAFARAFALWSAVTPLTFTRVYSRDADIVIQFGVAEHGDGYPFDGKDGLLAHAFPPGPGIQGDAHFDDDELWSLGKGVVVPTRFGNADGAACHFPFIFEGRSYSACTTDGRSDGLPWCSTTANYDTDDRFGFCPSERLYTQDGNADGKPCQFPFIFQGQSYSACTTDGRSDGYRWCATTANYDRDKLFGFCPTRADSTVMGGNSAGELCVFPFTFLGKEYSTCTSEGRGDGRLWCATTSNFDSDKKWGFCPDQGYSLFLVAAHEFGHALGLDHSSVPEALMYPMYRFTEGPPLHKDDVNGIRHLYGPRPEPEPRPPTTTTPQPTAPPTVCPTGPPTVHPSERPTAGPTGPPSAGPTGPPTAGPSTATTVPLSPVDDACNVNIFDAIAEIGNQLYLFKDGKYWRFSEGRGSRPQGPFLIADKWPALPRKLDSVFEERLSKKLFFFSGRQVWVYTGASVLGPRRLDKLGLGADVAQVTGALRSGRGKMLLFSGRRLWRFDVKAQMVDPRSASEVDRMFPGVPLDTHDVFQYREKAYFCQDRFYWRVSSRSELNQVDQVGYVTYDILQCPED
Chain of MMP-3CD (P08254 100-272 limits assumed): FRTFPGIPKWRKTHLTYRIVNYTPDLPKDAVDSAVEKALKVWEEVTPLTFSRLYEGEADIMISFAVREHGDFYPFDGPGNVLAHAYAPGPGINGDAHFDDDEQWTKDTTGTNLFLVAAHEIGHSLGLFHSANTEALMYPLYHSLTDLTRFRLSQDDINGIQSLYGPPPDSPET

SMILES	IC50 (MMP-1FL) [nM]	IC50 (MMP-2FL) [nM]	IC50 (MMP-3CD) [nM]	IC50 (MMP-7FL) [nM]	IC50 (MMP-9FL) [nM]	IC50 (MMP-13CD) [nM]	IC50 (MMP-14CD) [nM]
CC1(C)SCCN(S(=O)(=O)c2ccc3c4c(oc3c2)CCCC4)[C@H]1C(=O)O [Example 3, (S)-2,2-Dimethyl-4-(6,7,8,9-tetrahydro-dibenzofuran-3-sulfonyl)thiomorpholine-3-carboxylic Acid]	6900	390	39	100000	54000	1310	150
CC1(C)SCCN(S(=O)(=O)c2ccc3c4c(oc3c2)CCCC4)[C@H]1C(=O)NO [Example 4, (S)-2,2-Dimethyl-4-(6,7,8,9-tetrahydro-dibenzofuran-3-sulfonyl)thiomorpholine-3-carboxylic Hydroxamide]	69	82	9	230	210	12	52
CC1(C)C(C(=O)O)N(S(=O)(=O)c2ccc3c4c(oc3c2)CCCCC4)CCS1(=O)=O (stereo not shown) [Example 6, 2,2-Dimethyl-1,1-dioxo-4-(6,7,8,9-tetrahydro-5H-10-oxa-benzo{a}azulene-2-sulfonyl)-1l^6-thiomorpholine-3-carboxylic Acid]	40000	600	37	41000	70000	2100	93
CC1(C)C(C(=O)NO)N(S(=O)(=O)c2ccc3c4c(oc3c2)CCCCC4)CCS1(=O)=O (stereo not shown) [Example 7, 2,2-Dimethyl-1,1-dioxo-4-(6,7,8,9-tetrahydro-5H-10-oxa-benzo{a}azulene-2-sulfonyl)-1l^6-thiomorpholine-3-carboxylic Acid Hydroxyamide]	970	220	15	420	450	6.2	53
